From patent US20100160385A1, “FUNGICIDAL TRIPHENYL-SUBSTITUTED PYRIDONES” (E.I. DU PONT DE NEMOURS AND COMPANY, priority 2008, published 2010)

How the values were obtained:
[1] = tested on: Erysiphe graminis f. sp. tritici; test: Test A: wheat powdery mildew, preventive spray on wheat seedlings; type: in vivo; settings: wheat seedlings sprayed to run-off, inoculated following day, rated after 8 days at 20° C.; 100 = 100% disease control, 0 = no control; test concentration not given
[2] = tested on: Puccinia recondite f. sp. tritici; test: Test B: wheat leaf rust, preventive spray on wheat seedlings; type: in vivo; settings: wheat seedlings sprayed to run-off, inoculated following day, 24 h saturated atmosphere then 7 days at 20° C.; 100 = 100% disease control, 0 = no control; test concentration not given
Septoria tritici = test: Test C: wheat leaf blotch, preventive spray on wheat seedlings; type: in vivo; settings: wheat seedlings sprayed to run-off, inoculated following day, 48 h saturated atmosphere then 19 days at 20° C.; 100 = 100% disease control, 0 = no control; test concentration not given
Septoria nodorum = test: Test D: wheat glume blotch, preventive spray on wheat seedlings; type: in vivo; settings: wheat seedlings sprayed to run-off, inoculated following day, 48 h saturated atmosphere then 7 days at 20° C.; 100 = 100% disease control, 0 = no control; test concentration not given
Alternaria solani = settings: tomato seedlings sprayed to run-off, inoculated following day, 48 h saturated atmosphere at 27° C. then 5 days at 20° C.; 100 = 100% disease control, 0 = no control; test concentration not given
Botrytis cinerea = settings: tomato seedlings sprayed to run-off, inoculated following day, 48 h saturated atmosphere at 20° C. then 3 days at 24° C.; 100 = 100% disease control, 0 = no control; test concentration not given

## COc1cc(OC)c(Cl)c(-n2c(-c3ccc(F)cc3)cc(=O)c(C)c2-c2c(F)cc(F)cc2F)c1 [Compound 1, 1-(2-chloro-3-5-dimethoxyphenyl)-6-(4-fluorophenyl)-3-methyl-2-(2,4,6-trifluorophenyl)-4-(1H)-pyridinone]
[1]
  Test A disease control rating: 99%
[2]
  Test B disease control rating: 100%
Septoria tritici
  Test C disease control rating: 97%
Septoria nodorum
  Test D disease control rating: 100%
Alternaria solani
  Test E disease control rating: 100%
Botrytis cinerea
  Test F disease control rating: 98%
